From PubChem BioAssay (NCI)
Where “and” joins values, the source holds several entries; their conditions need not be identical. Identical values can stand only once.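 Dose response: 5 concentrations. Exposure: 48 h. Format: 96-well plates. Endpoint: linear interpolation; highest concentration if not reached. GI50 marks 50% less growth. TGI: concentration producing complete growth inhibition.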

Legend:
Assay in all cases: growth of human tumour cells (NCI), 48 h
CAKI-1 renal = test system: CAKI-1 renal
COLO 205 colon = test system: COLO 205 colon
MDA-MB-231 breast = test system: MDA-MB-231 breast
MDA-MB-435 = test system: MDA-MB-435
MOLT-4 leukemia = test system: MOLT-4 leukemia
SF-268 CNS = test system: SF-268 CNS
SK-MEL-5 melanoma = test system: SK-MEL-5 melanoma
SK-OV-3 ovarian = test system: SK-OV-3 ovarian
SNB-19 CNS = test system: SNB-19 CNS
SW-620 colon = test system: SW-620 colon

SMILES	TGI (CAKI-1 renal)	TGI (COLO 205 colon)	TGI (MDA-MB-231 breast)	TGI (MDA-MB-435)	TGI (MOLT-4 leukemia)	TGI (SF-268 CNS)	TGI (SK-MEL-5 melanoma)	TGI (SK-OV-3 ovarian)	TGI (SNB-19 CNS)	TGI (SW-620 colon)	GI50 (COLO 205 colon)	GI50 (SF-268 CNS)	GI50 (SK-MEL-5 melanoma)	GI50 (SK-OV-3 ovarian)	GI50 (SNB-19 CNS)	GI50 (SW-620 colon)	GI50 (CAKI-1 renal)	GI50 (MDA-MB-231 breast)	GI50 (MDA-MB-435)	GI50 (MOLT-4 leukemia)
N#Cc1c(-c2ccc([N+](=O)[O-])cc2)c2c([nH]c1=O)-c1ccccc1CCC2	> 100 µM	> 100 µM	> 100 µM	> 100 µM	> 100 µM	> 100 µM	> 100 µM	> 100 µM	> 100 µM	> 100 µM	–	–	–	–	–	–	–	–	–	–
O=C1OC(c2ccc(O)cc2)(c2ccc(O)cc2)c2ccc(Cl)c3cccc1c23 (tested in a mixture with another compound)	22 µM	9.06 µM	26.1 µM	18.9 µM	–	52.8 µM	29.3 µM	> 75 µM	> 75 µM	33.4 µM	–	–	–	–	–	–	–	–	–	–
CC[C@@]1(O)CC(OC2CC(N3CCOCC3)C(O)C(C)O2)c2c(O)c3c(c(O)c2[C@H]1O)C(=O)c1cccc(O)c1C3=O (stereo partly drawn)	0.318 µM and 0.243 µM	0.897 µM and 2.14 µM	1.94 µM	1.14 µM	0.369 µM and 0.128 µM	3.27 µM and 2.1 µM	0.451 µM and 0.181 µM	1.07 µM and 1.67 µM	3.92 µM and 4.16 µM	5.93 µM and 9.38 µM	0.0433 µM	0.091 µM	0.0175 µM	0.0963 µM	0.0292 µM	0.121 µM	–	–	–	–
Cc1csc2nc(-c3cccc([N+](=O)[O-])c3)c(/C=N/N=C(N)N)n12	8.71 µM	3 µM	2.95 µM	3.03 µM	–	3.29 µM	2.74 µM	3.33 µM	–	2.98 µM	–	–	–	–	–	–	–	–	–	–
Cc1cc(C)c2c(=O)n(CC(O)CN(Cc3ccccc3)CC(O)Cn3sc4nc(C)cc(C)c4c3=O)sc2n1 (stereo not drawn)	33.4 µM	21.3 µM	31.6 µM	31.4 µM	> 100 µM	30.9 µM	30.1 µM	73.6 µM	34.7 µM	> 100 µM	–	–	–	–	–	–	–	–	–	–
C[n+]1c2ccccc2c(N=[N+]=[N-])c2ccccc21	> 10 µM	> 10 µM	> 10 µM	> 10 µM	> 10 µM	> 10 µM	> 10 µM	> 10 µM	> 10 µM	> 10 µM	–	–	–	–	–	–	–	–	–	–
N#CC1(CCCI)CCCC1	–	> 100 µM	–	–	> 100 µM	41.3 µM	25.5 µM	> 100 µM	31.6 µM	> 100 µM	–	–	–	–	–	–	–	–	–	–
O=C(/C=C/c1ccc([N+](=O)[O-])cc1)N1CCN(CCOC(c2ccc(F)cc2)c2ccc(F)cc2)CC1	> 100 µM	27.3 µM	> 100 µM	> 100 µM	19 µM	> 100 µM	> 100 µM	> 100 µM	> 100 µM	> 100 µM	–	–	–	–	–	–	–	–	–	–
Cc1[nH]c(C(=O)Nc2ccc(C(=O)NCCN)cc2OC(C)C)c(Cl)c1Cl	3.04 µM	–	3.27 µM	3.08 µM	–	–	3.2 µM	–	–	–	–	–	1.78 µM	–	–	–	1.63 µM	1.69 µM	1.66 µM	–
c1ccc(CSC(SCc2ccccc2)c2cccc3ccccc23)cc1	> 10 µM	> 10 µM	> 10 µM	> 10 µM	> 10 µM	> 10 µM	> 10 µM	> 10 µM	> 10 µM	> 10 µM	–	–	–	–	–	–	–	–	–	–
COc1ccccc1C#C/C=C\C#Cc1ccccc1C#N	61.5 µM	37.1 µM	–	14.5 µM	38.4 µM	> 100 µM	5.95 µM	> 100 µM	> 100 µM	65.7 µM	–	–	–	–	–	–	–	–	–	–
CC(C)CCN(CCC(C)C)CC(=O)Nc1ccc(S(=O)(=O)c2ccc(NC(=O)CN(CCC(C)C)CCC(C)C)cc2)cc1	–	–	6.39 µM	6.07 µM	7.44 µM	4.68 µM	3.05 µM	88 µM	10.3 µM	3.74 µM	–	1.51 µM	1.53 µM	28 µM	2.19 µM	1.55 µM	–	2.08 µM	2.15 µM	2.28 µM
Nc1ccc(Oc2ccc(C34CC5CC(C3)CC(c3ccc(Oc6ccc(N)cc6C(F)(F)F)cc3)(C5)C4)cc2)c(C(F)(F)F)c1	> 100 µM	37.1 µM	31.5 µM	84.2 µM	> 100 µM	43.9 µM	39.9 µM	35.4 µM	48.9 µM	> 100 µM	–	–	–	–	–	–	–	–	–	–
CCOC(=O)C1=C(C(=O)OCC)SC2(S1)C(C(=O)OCC)=C(C(=O)OCC)Sc1c2ssc1=O	5.15 µM	5.15 µM	3.88 µM	3.93 µM	2.14 µM	4.19 µM	5.29 µM	10.9 µM	15.4 µM	1.89 µM	–	–	–	–	–	–	–	–	–	–
O=C(O)c1cc2ccccc2c(N=Nc2ccc(S(=O)(=O)Nc3ccccn3)cc2)c1O	> 100 µM	> 100 µM	> 100 µM	> 100 µM	> 100 µM	> 100 µM	> 100 µM	> 100 µM	> 100 µM	> 100 µM	–	–	–	–	–	–	–	–	–	–
Cc1c(-c2ccccc2)c(C#N)c2nnn(-c3ccc(Cl)cc3)c(=O)n12	> 100 µM	42.3 µM	> 100 µM	> 100 µM	–	> 100 µM	16 µM	> 100 µM	> 100 µM	> 100 µM	–	–	–	–	–	–	–	–	–	–
NC1CCN(c2nc3ccccc3c3c2CCCC3)CC1	19.1 µM	3.22 µM	12.8 µM	7.61 µM	9.36 µM	33 µM	7.01 µM	27.1 µM	22.7 µM	12.7 µM	–	–	–	–	–	–	–	–	–	–
COC(=O)c1c(O)ccc2c1c1c(n2CCc2ccc(OC)c(OC)c2)C(=O)c2ccccc2C1=O	38.3 µM	11.1 µM	52.3 µM	29.2 µM	65.8 µM	41 µM	23.9 µM	38.6 µM	> 100 µM	–	–	–	–	–	–	–	–	–	–	–
O=C1N[C@H]2C(=O)c3c(Br)sc(Br)c3[C@H]2O1	9.81 µM	8.17 µM	22.4 µM	26.7 µM	5.25 µM	14.2 µM	27.7 µM	34.7 µM	30.7 µM	4.76 µM	–	–	–	–	–	–	–	–	–	–
Cc1[nH]c2ncn3[nH]c(=S)nc3c2c1Cc1ccccc1	> 100 µM	> 100 µM	> 100 µM	> 100 µM	> 100 µM	> 100 µM	> 100 µM	> 100 µM	> 100 µM	> 100 µM	–	–	–	–	–	–	–	–	–	–
O=C1Nc2cccc(Cl)c2/C1=C\c1cccnc1	24.2 µM	15.9 µM	–	19.8 µM	10.2 µM	25.6 µM	27.4 µM	15.3 µM	16.3 µM	37.7 µM	–	–	–	–	–	–	–	–	–	–
CC1(C)CN(CC(=O)O)CC(Cc2ccc(OCC(=O)O)cc2)N(CC(=O)O)CC(C)(C)SS1 (stereo not drawn)	> 100 µM	> 100 µM	> 100 µM	> 100 µM	> 100 µM	> 100 µM	> 100 µM	> 100 µM	> 100 µM	> 100 µM	–	–	–	–	–	–	–	–	–	–
COc1cc(/C=N/NC(=O)c2c(Cl)c(Cl)c(Cl)c(Cl)c2-c2nc3ccc(C(=O)c4ccccc4)cc3[nH]2)ccc1O	> 100 µM	58.1 µM	> 100 µM	> 100 µM	64.1 µM	> 100 µM	> 100 µM	> 100 µM	> 100 µM	> 100 µM	–	–	–	–	–	–	–	–	–	–
O=C(CSCC(=O)N/N=C\c1ccc(F)cc1F)N/N=C\c1ccc(F)cc1F	> 100 µM	> 100 µM	> 100 µM	> 100 µM	> 100 µM	> 100 µM	> 100 µM	> 100 µM	> 100 µM	> 100 µM	–	–	–	–	–	–	–	–	–	–
CC(C)CNC1=NCC(C)S1 (stereo not drawn)	> 100 µM	> 100 µM	> 100 µM	> 100 µM	> 100 µM	> 100 µM	> 100 µM	> 100 µM	> 100 µM	> 100 µM	–	–	–	–	–	–	–	–	–	–
Cc1ncc(C(=O)Nc2ccc(CN3CCN(C)CC3)c(C(F)(F)F)c2)cc1C#Cc1cnc(N)c2ccc(C#N)cc12	–	> 100 µM	–	–	> 100 µM	> 100 µM	–	> 100 µM	–	–	0.0146 µM	0.0399 µM	–	0.02 µM	–	–	–	–	–	0.0559 µM
c1ccc(/C(=N\Nc2nc3ccccc3[nH]2)c2ccccn2)cc1	8.79 µM	3.31 µM	41.2 µM	13.7 µM	51.9 µM	> 45.9 µM	4.66 µM	2.02 µM	> 100 µM	> 69.4 µM	–	–	–	–	–	–	–	–	–	–
C[C@]12CC[C@H]3[C@@H](CC=C4C[C@@H](O)CC[C@@]43C)[C@@H]1C/C(=C\c1ccncc1)[C@@H]2O	57.4 µM	24.9 µM	99.2 µM	47.9 µM	61.9 µM	54.4 µM	21.1 µM	79.6 µM	62.1 µM	> 100 µM	–	–	–	–	–	–	–	–	–	–
